Where two headings read alike, the source gives them in different places.
How the values were obtained:
HepG2 cells [1] = assay: Clonal survival assay, HepG2; format: cell-based, human; conditions: for EC50: Homo sapiens, read-out: half-maximal effect on cell survival
Procedure: Cells were seeded into 6-well plates at equal density and treated in triplicate at 40% to 60% confluence with vehicle or cordycepin for the indicated time. Cells were trypsinized in 1 ml trypsin:EDTA for 5 min and diluted in 1 ml of complete medium. Cells in control wells were counted using a hemocytometer and 1000 cells from vehicle and cordycepin-treated wells were seeded in triplicate into 10 cm dishes containing 10 ml of medium. The dishes were incubated at 37°C for 10-15 days. […] The dishes were washed with water and the number of colonies counted manually.

[2] = target: T1, AMPK complexes containing WT γ2 (Homo sapiens, UniProt Q9UGJ0); assay: AMPK activity in anti-FLAG immunoprecipitates, HepG2 cells with FLAG-tagged WT AMPK-γ2; format: cell-based; conditions: 1 h, 300 μM cordycepin, 10 mM phenformin or 300 μM A-769662
T1 construct: expressed in transfected cells; host or cells: HepG2 (transient, Fugene 6)
T1 sequence (Q9UGJ0 whole entry, one chain of several): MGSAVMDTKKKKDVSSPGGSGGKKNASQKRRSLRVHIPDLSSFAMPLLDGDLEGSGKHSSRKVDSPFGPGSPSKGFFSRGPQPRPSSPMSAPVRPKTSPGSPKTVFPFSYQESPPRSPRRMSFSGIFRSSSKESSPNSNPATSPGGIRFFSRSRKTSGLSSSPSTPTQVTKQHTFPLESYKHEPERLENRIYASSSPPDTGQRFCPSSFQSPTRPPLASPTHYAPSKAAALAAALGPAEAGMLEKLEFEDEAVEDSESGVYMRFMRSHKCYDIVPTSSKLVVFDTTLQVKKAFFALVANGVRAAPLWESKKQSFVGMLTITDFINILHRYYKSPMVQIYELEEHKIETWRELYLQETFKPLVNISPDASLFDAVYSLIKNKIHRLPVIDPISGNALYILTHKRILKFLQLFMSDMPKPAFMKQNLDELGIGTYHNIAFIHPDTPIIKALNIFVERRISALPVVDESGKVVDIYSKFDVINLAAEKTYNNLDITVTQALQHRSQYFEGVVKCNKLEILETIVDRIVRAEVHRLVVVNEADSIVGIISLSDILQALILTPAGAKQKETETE
Procedure: (§1) HepG2 cells ([…]) were cultured in Minimum Essential Medium (MEM) supplemented with 10% (v/v) FBS, 1% (v/v) non-essential amino acids and 1% (v/v) penicillin/streptomycin. Transient transfection of DNAs encoding FLAG-tagged AMPK-γ2 or an R531G mutant of AMPK-γ2 were carried out 36-48 hr prior to experiments using Fugene 6 according to manufacturers’ instructions. U2OS cells ([…]) were cultured in Dulbecco’s Modified Eagle’s Medium (DMEM) supplemented with 10% (v/v) FBS and 1% (v/v) penicillin/streptomycin.
(§2) HepG2 cells were transiently transfected with DNAs encoding FLAG-tagged wild type AMPK-γ2 or the R531G mutant, using Fugene 6 according to the manufacturers’ instructions. After transfection for 48 hr, cells were treated with various agents as described, and cell lysates prepared ([Hawley et al., 2018]). FLAG-tagged AMPK was then immunoprecipitated from 150 μg total protein by incubation at 4°C for 2 hr on a roller mixer with 9 μl of EZview Red anti-FLAG M2 affinity gel. After extensive washing, the immunoprecipitates were assayed for AMPK activity (50 μg per assay in a total volume of 50 μl) using the AMARA peptide (200 μM) as substrate in the presence of 200 μM AMP, 5 mM MgCl2 and 200 μM γ-^32P-ATP as described previously ([Fyffe et al., 2018]).

[3] = target: T2, AMPK complexes containing the R531G mutant (Homo sapiens, UniProt Q9UGJ0, R531G); assay: AMPK activity in anti-FLAG immunoprecipitates, HepG2 cells with FLAG-tagged AMPK-γ2 R531G mutant; format: cell-based; conditions: 1 h, 300 μM cordycepin, 10 mM phenformin or 300 μM A-769662
T2 construct: expressed in transfected cells; host or cells: HepG2 (transient, Fugene 6)
T2 sequence (Q9UGJ0 whole entry R531G, one chain of several): as the sequence (Q9UGJ0 whole entry, one chain of several) above, with R531G counted along it
Procedure: as §1, §2

AMPK DKO U2OS cells = assay: Clonal survival assay, AMPK DKO U2OS; format: cell-based; conditions: Homo sapiens, 8 h incubation, read-out: half-maximal effect on clonal survival
Excerpt: AMPK-α1^-/- -α2^-/- U2OS cells were generated using the Cas9 (D10A) double nickase system. Pairs of guide RNAs targeted to exon 4 in both PRKAA1 and PRKAA2, along with screening primers for genotyping, were designed and cloned by Thomas Macartney and are available by contacting MRCPPU Reagents and Services (https://mrcppureagents.dundee.ac.uk). Sense guides were cloned into the puromycin-selectable pBABED puro U6 vector and antisense guides into the Cas9 (D10A) vector pX335. U2OS cells carrying a Flp recombinase target site were transfected with 1 μg of each plasmid using Fugene6 according to manufacturers’ instructions. At 24 and 48 hr after transfection, medium was replaced with fresh medium containing 1 μg/ml puromycin. […] Clones were expanded and screened for loss of AMPK protein and activity by Western blotting using anti-AMPK-α and pACC antibody normalised to total ACC detected using streptavidin. […]
Cells were seeded into 6-well plates at equal density and treated in triplicate at 40% to 60% confluence with vehicle or cordycepin for the indicated time. […] Cells in control wells were counted using a hemocytometer and 1000 cells from vehicle and cordycepin-treated wells were seeded in triplicate into 10 cm dishes containing 10 ml of medium. […] The dishes were washed with water and the number of colonies counted manually.

HepG2 cells [4] = assay: MTT assay for cell proliferation; format: cell-based, human
Procedure: After treatment for the specified time, the effect of cordycepin on cell proliferation was determined using the MTT assay kit (Abcam, ab211091) as per manufacturers’ instructions.

HepG2 cells [5] = assay: Measurement of cordycepin in cell medium of HepG2 cells (LC-MS); format: in vitro ADME, human; conditions: 100 μM added
Procedure: (§3) The same LC-MS system was used to detect and quantify cordycepin. LC conditions were optimized using a TSKgel Amine-80 Column (100 × 1 mm, ID 5 μm, Part No.0020010, TOSOH Bioscience). Mobile phase buffer A consisted of 0.1% (v/v) formic acid and buffer B was in 80% (v/v) acetonitrile. The column was maintained at 40°C and was equilibrated with 98% buffer B for 5 min at a constant flow rate of 0.05 mL/min. Samples were diluted 1/1500 and aliquots of 4 μL of each sample loaded onto the column. Cordycepin was eluted by decreasing buffer B from 98% to 85% within 2 min and then to 10% within 5 min. Eluents were sprayed into the TSQ Quantiva which was run in positive mode with a spray voltage of 2700, sheath gas 40, aux gas 20, sweep gas 2. Levels of cordycepin were measured using multiple reaction monitoring mode (MRM) with optimized collision energies and radio frequencies previously determined by infusing pure compound. One transition (252 > 136) was used to detect and monitor cordycepin.

[6] = as above; format: in vitro ADME, human; conditions: human, 100 μM added
Procedure: as §3

[7] = tested on: wild-type (WT) U2OS cells; assay: Clonal survival assay, wild-type U2OS; format: cell-based; conditions: Homo sapiens, 8 h incubation, read-out: half-maximal effect on clonal survival
Procedure: Cells were seeded into 6-well plates at equal density and treated in triplicate at 40% to 60% confluence with vehicle or cordycepin for the indicated time. Cells were trypsinized in 1 ml trypsin:EDTA for 5 min and diluted in 1 ml of complete medium. Cells in control wells were counted using a hemocytometer and 1000 cells from vehicle and cordycepin-treated wells were seeded in triplicate into 10 cm dishes containing 10 ml of medium. The dishes were incubated at 37°C for 10-15 days. On the last day, the medium was decanted, cells fixed with ice-cold methanol for 10 min and stained with 10% v/v Giemsa stain in water for 15 min. The dishes were washed with water and the number of colonies counted manually.

In the case of `Nc1ncnc2c1ncn2[C@@H]1O[C@H](CO)C[C@H]1O` [cordycepin, 3′-deoxyadenosine], the “effect on clonal survival” value (HepG2 cells [1]; 100 μM) is reported as “only partial effects”, the “effect on clonal survival” value (HepG2 cells [1]; 300 μM) is reported as “almost complete death” and the “effect on clonal survival” value (HepG2 cells [1]; 1 mM) is reported as “almost complete death”. It also gave an EC50 (HepG2 cells [1]; 2 h treatment) of 130 µM, an EC50 (HepG2 cells [1]; 8 h treatment) of 70 µM and an EC50 (HepG2 cells [1]; 24 h treatment) of 35 µM. For the same molecule, the “activation of AMPK complexes containing WT γ2” value [2] was “activated”, the “activation of AMPK complexes containing the R531G mutant” value [3] was “not activated” and the EC50 (AMPK DKO U2OS cells) was 44 ± 2 µM. For the same molecule, the “effect on cell proliferation” value (HepG2 cells [4]; 30 μM, after 72 h) was “only very small effects”, the “decrease in cell proliferation” value (HepG2 cells [4]; 100 μM, after 72 h) was 30% and the “effect on cell proliferation” value (HepG2 cells [4]; 300 μM) was “completely prevented cell proliferation”. The “effect on cell proliferation” value (HepG2 cells [4]; 1 mM) was “completely prevented cell proliferation”, the “decline of cordycepin in the medium” value (HepG2 cells [5]; by 2 h) was 70% and the “cordycepin remaining in the medium” value (HepG2 cells [5]; by 4 h) was “almost disappeared”. It also gave a half-life at 100 μM [6] of about 1.33 h and an EC50 [7] of 81 ± 4 µM.

— article PMC7031697, “Mechanism of Activation of AMPK by Cordycepin” (Cell Chemical Biology, 2020)
